In paper PMC3529809 (Steroids, 2012):
Entries after “also recorded” stand apart in the source; their conditions may differ.

Key:
[1] = tested on: ERα+ MCF-7 and triple-negative MDA-MB-231 and Hs578T breast cancer cells; details: 100 µM; cited from earlier work
[2] = target: T1, human ERβ (Homo sapiens, UniProt Q92731); assay: [3H] E2 ligand binding competition; details: IC50 for ERβ, competition with 30 nM [3H] E2, Fig. 6B
[3] = tested on: TFF1 (pS2), PGR (PR), CTSD (cathepsin D) transcription; assay: QRT-PCR of endogenous ER-target genes in ERα-transfected HEK-293 cells; type: cell-based, human; details: 10 nM E2 or 5 µM sterol, 24 h, Fig. 5A
[4] = target: ERβ; details: expressed in COS-1 cells, cited from earlier work
[5] = tested on: MCF-7 human breast cancer cells; assay: Cell proliferation BrdU assay; type: cell-based; details: 48 h BrdU; 10 nM E2, 5 µM sterols; Fig. 7
[6] = target: T1, human ERβ; assay: ERELUC transient transfection reporter assay, ERβ in HepG2 cells; type: cell-based; details: 5 µM, 24 h, Fig. 1B; result in words
[7] = tested on: diethylnitrosamine-induced hepatic tumors; details: 0.6% in the diet, rats; cited from earlier work
[8] = tested on: NRF1 (NRF-1) expression; assay: QRT-PCR of NRF1 in ERβ-transfected HepG2 cells; type: cell-based, human; details: 10 nM E2 or 5 µM sterol, 24 h, Fig. 5B
[9] = tested on: MCF-7 cells; details: cited from earlier work
[10] = tested on: NMU and DMBA induced tumors of the mammary gland; details: oral, rats; cited from earlier work
[11] = tested on: ZR-75-1 breast cancer xenografts; details: twice daily s.c. injections of 0.3 mg, nude mice; cited from earlier work

T1 sequence (Q92731 whole entry): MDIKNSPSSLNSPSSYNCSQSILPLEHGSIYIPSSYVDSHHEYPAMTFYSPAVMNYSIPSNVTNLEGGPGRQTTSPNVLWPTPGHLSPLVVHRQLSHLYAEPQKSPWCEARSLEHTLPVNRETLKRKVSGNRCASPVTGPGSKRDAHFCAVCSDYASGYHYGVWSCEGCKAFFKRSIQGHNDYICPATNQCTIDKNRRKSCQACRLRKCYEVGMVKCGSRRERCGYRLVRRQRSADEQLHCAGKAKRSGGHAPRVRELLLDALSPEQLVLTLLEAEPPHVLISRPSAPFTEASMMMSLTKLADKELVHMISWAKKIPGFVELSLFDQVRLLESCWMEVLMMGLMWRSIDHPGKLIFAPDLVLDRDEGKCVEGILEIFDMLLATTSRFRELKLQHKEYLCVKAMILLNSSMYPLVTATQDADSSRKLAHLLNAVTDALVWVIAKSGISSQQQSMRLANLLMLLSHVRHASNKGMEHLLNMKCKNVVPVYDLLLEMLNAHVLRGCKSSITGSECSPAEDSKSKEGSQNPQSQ

SMILES: C[C@]12CC[C@H](O)CC1=CC[C@@H]1[C@@H]2CC[C@]2(C)C(=O)CC[C@@H]12 [DHEA, 3β-hydroxy-androst-5-ene-17-one]
- proliferation, cell cycle progression and migration [1]: inhibit
- IC50 [2]: 500000 nM
- CTSD (cathepsin D) expression [3]: increased
- PGR (PR) expression [3]: increased
- TFF1 (pS2) expression [3]: increased
- Kd ([4]; read-out: Kd for ERβ): ~500 nM
- Ki ([4]; read-out: Ki for ERβ): ~500 nM
- MCF-7 cell proliferation [5]: increased
- ERELUC activity in ERβ-expressing HepG2 cells [6]: significantly induced
- tumor cell growth [7]: inhibited tumor cell growth
- NRF-1 mRNA expression [8]: statistically significant increase; also recorded: low induction
- proliferation of MCF-7 cells ([9]; 1–10 µM concentrations): stimulated proliferation
- MCF-7 cell growth ([9]; DHEA 0.5 µM, ADIOL 2 nM): stimulated
- MCF-7 cell proliferation ([9]; less than E2): increased cell proliferation
- effect in the mammary gland after chemical induction of tumors [10]: anti-carcinogenic effects
- estrone-stimulated growth of xenografts [11]: suppressed
